This test has as its target T1, human GR (Homo sapiens, UniProt P04150).
T1 sequence (P04150 1-777): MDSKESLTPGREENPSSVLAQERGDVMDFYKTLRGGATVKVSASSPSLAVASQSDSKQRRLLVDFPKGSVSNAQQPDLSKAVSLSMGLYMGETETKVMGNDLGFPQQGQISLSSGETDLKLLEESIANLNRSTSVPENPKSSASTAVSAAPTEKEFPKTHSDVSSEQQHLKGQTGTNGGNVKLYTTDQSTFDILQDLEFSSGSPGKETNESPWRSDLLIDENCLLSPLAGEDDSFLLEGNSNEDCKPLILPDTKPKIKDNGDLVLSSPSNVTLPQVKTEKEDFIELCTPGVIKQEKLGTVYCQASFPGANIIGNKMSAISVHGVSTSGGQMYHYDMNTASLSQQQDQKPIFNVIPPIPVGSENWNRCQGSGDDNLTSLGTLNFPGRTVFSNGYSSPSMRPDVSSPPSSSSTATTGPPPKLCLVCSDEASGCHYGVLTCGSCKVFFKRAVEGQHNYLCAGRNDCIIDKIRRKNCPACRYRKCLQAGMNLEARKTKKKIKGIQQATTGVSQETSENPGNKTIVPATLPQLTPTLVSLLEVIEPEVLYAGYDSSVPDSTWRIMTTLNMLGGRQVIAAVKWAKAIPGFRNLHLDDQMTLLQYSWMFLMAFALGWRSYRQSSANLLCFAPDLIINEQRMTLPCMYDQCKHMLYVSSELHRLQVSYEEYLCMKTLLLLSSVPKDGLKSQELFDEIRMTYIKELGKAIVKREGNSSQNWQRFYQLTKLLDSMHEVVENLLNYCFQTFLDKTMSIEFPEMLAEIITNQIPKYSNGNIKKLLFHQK
The test is described as follows: Transrepression Assay (GITAR), TNFα-β-lactamase reporter in U937 cells. The format is cell-based. On the set-up: U937 cells contain an endogenous glucocorticoid receptor (GR); endogenous in cells; host or cells: U937 cells stably transfected with the TNF-alpha promoter/beta-lactamase reporter. Conditions: for GITAR > GRAMM % SEP: GITAR Emax minus GRAMMER Emax; for EC50: U937 cells, inflection point, read-out: Transrepression U937 Cells GITAR IP. In a few lines: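 U937 cells with endogenous GR, stably carrying TNFα promoter–β-lactamase, preincubated with compound 30–45 min at 37° C, then stimulated with PMA 5 ng/ml and LPS 100 ng/ml (final) ~18 hr. Read-out via CCF2-AM loading; repression by 100 nM dexamethasone set as 100%.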

The mark [1] stands for this setting: U-937, U937 cells, maximum activity, read-out: Transrepression U937 Cells GITAR Emax.
[2] abbreviates: U-937, activity repressed by 100 nM dexamethasone alone set as 100%, read-out: maximal activity in the transrepression (GITAR) assay.

Read-outs that look alike come from different tables or passages of the source.

The results in this text go back to US8299048B2, “Hexahydrocyclopentyl[f]indazole sulfonamides and derivatives thereof as selective glucocorticoid receptor modulators” (Merck Sharp & Dohme Corp., priority 2008, dated 2012).

Turning to `C[C@]12Cc3cnn(-c4ccc(F)cc4)c3C=C1CC[C@@H]2CN(CC1(O)CC1)S(=O)(=O)c1ccccc1F` [Example 200, 2-fluoro-N-{[(4αR,5S)-1-(4-fluorophenyl)-4α-methyl-1,4,4α,5,6,7-hexahydrocyclopenta[f]indazol-5-yl]methyl}-N-[(1-hydroxycyclopropyl)methyl]benzenesulfonamide], the “GITAR > GRAMM % SEP” value was determined as 28.4% and the EC50 was determined as 308 nM. The Emax under setting [1] is 85.9%. The Emax under setting [2] is more than 5%.

For `C[C@]12Cc3cnn(-c4ccc(F)cc4)c3C=C1CC[C@@H]2CN(CC1(O)CCCCC1)S(=O)(=O)c1ccccc1F` [Example 201, 2-fluoro-N-{[(4αR,5S)-1-(4-fluorophenyl)-4α-methyl-1,4,4α,5,6,7-hexahydrocyclopenta[f]indazol-5-yl]methyl}-N-[(1-hydroxycyclohexyl)methyl]benzenesulfonamide], the “GITAR > GRAMM % SEP” value came to 21.7% and the EC50 turned out to be 486 nM. Besides, the Emax under setting [1] worked out at 69.5%. Moreover, under setting [2], the Emax is more than 5%.
